Target: T1, CRL4B complex (CUL4B, DDB1) (Homo sapiens, UniProt Q13620+Q16531)
T1 construct: endogenous in cells; host or cells: KBM7 WT cells
Assay: Chemoproteomics with IC021313.2 photoaffinity probe, competitive setup
Format: binding
Conditions: KBM7 WT; 100 μM competitor, 10 μM photoprobe
Source text: Another explanation would be (2) functional redundancy, where our identified small-molecules modulate more than one SR in an interchangeable manner (either directly or indirectly). Lastly (3), it could be that the tested molecules endow a neomorphic function of the CRL4B complex by binding to a non-SR component. In order to disentangle these hypotheses, and to test if the assayed molecules would directly bind to/physically engage the CRL4B complex, IC021313.2 was derivatized with a moiety consisting of a photoactive diazirine group and an alkyl handle (FIG. 7). The ensuing functionalized molecule was used to purify proteins physically binding to the compound (“interactors”). In order to gain increased confidence, a competitive setup was chosen where cells were initially treated with the parental, non-modified compound or vehicle control. Compound treatment (1h) at excess concentrations of 100 μM was expected to saturate binding sites. Subsequently, cells (both vehicle- and compound-treated) were treated with the functionalized probe for 1 h at 10 μM, followed by UV-crosslinking. Next, cells were lysed and a biotin-azide linker was attached via click chemistry, and interacting proteins (“interactors”) were purified via biotin enrichment over a Streptavidin column and subjected to unbiased detection via label-free proteomics analysis. […]

T1 sequence (Q13620 whole entry): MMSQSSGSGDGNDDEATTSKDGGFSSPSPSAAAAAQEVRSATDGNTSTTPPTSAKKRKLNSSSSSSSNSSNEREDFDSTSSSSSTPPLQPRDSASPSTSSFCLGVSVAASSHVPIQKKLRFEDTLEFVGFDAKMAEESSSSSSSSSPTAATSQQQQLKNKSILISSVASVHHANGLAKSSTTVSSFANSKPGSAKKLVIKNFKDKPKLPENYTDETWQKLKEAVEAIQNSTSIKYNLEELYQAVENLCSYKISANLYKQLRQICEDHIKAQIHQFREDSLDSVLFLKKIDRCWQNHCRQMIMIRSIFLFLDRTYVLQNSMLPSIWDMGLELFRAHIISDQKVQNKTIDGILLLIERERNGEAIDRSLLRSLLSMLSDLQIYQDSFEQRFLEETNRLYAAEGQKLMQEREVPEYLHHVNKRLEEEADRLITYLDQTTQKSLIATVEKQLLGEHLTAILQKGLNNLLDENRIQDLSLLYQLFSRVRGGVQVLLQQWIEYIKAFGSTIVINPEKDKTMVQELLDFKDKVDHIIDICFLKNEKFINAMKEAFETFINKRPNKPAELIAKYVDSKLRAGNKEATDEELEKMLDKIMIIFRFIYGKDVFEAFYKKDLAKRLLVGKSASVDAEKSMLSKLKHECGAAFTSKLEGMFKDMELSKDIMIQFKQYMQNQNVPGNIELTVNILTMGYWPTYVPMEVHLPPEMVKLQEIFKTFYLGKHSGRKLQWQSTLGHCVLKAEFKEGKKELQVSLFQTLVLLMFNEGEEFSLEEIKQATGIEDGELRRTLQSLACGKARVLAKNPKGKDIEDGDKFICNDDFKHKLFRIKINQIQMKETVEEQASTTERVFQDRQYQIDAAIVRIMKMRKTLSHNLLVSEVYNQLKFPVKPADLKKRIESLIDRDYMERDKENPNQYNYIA
T1 sequence (Q16531 2-1140 limits assumed): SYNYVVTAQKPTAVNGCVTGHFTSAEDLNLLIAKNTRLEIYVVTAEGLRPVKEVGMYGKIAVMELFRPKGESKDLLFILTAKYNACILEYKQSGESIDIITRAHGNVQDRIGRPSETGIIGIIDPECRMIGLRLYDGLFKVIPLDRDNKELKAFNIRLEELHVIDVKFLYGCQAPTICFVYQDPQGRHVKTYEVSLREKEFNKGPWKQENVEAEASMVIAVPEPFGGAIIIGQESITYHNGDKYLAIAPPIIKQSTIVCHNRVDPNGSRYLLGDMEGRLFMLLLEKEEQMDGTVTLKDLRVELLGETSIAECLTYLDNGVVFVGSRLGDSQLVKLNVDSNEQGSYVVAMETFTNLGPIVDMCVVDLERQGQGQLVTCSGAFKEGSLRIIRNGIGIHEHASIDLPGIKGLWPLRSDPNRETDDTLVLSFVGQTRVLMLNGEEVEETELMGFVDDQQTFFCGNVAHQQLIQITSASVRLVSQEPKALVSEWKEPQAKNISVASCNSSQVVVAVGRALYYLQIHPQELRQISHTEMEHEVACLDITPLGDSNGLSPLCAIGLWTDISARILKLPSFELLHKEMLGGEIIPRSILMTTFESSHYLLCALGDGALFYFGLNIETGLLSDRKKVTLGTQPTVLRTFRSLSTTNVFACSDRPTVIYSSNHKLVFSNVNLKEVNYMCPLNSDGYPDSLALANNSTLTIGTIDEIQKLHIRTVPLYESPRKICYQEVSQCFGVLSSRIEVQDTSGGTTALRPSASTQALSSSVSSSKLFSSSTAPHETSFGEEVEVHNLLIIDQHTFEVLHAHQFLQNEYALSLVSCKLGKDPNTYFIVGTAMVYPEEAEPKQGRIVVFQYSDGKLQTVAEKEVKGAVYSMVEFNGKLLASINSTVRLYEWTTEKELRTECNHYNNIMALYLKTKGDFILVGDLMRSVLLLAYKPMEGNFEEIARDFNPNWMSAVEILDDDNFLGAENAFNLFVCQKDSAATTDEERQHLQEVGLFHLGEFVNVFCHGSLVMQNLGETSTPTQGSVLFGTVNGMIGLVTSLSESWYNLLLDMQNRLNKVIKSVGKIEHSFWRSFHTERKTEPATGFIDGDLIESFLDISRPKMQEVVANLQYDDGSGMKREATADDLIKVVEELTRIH
T1 sequence (Q9NYV4 whole entry partner): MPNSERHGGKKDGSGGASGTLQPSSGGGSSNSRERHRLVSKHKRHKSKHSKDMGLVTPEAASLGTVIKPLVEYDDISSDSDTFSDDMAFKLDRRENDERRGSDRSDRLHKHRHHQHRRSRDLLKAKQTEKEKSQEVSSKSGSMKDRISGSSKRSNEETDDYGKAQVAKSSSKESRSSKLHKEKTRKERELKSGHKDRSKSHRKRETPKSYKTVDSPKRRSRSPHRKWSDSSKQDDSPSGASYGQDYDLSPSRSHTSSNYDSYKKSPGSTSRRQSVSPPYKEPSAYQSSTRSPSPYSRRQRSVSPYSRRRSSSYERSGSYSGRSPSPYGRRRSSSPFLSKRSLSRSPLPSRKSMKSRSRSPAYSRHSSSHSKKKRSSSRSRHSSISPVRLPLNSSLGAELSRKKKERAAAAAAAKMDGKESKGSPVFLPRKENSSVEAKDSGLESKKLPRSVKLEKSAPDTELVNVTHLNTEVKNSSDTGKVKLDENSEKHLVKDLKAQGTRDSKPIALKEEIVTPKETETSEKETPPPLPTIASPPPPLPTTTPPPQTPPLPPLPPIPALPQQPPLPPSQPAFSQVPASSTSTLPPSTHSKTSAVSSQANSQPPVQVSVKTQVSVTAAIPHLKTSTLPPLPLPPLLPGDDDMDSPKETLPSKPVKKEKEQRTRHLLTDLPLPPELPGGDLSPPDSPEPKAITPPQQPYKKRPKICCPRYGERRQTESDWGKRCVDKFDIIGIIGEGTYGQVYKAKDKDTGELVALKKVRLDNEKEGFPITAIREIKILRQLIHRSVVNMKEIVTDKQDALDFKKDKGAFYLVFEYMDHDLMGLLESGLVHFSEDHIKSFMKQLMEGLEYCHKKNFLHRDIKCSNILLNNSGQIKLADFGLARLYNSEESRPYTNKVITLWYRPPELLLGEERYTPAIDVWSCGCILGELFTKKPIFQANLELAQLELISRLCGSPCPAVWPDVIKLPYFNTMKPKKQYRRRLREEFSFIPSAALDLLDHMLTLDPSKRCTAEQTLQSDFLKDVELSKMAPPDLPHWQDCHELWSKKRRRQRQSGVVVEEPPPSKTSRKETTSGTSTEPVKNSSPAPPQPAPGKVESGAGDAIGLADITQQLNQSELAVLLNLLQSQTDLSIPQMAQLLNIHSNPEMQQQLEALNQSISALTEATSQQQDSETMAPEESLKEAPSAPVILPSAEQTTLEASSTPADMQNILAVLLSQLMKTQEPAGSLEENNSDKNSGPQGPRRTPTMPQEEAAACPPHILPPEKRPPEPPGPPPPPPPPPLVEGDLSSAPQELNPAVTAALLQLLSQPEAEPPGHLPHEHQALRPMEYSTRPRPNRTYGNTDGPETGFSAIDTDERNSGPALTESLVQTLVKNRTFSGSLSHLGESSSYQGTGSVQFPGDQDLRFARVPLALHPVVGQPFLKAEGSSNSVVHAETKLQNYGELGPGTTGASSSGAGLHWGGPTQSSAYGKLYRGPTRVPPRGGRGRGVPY
T1 sequence (O75909 whole entry partner): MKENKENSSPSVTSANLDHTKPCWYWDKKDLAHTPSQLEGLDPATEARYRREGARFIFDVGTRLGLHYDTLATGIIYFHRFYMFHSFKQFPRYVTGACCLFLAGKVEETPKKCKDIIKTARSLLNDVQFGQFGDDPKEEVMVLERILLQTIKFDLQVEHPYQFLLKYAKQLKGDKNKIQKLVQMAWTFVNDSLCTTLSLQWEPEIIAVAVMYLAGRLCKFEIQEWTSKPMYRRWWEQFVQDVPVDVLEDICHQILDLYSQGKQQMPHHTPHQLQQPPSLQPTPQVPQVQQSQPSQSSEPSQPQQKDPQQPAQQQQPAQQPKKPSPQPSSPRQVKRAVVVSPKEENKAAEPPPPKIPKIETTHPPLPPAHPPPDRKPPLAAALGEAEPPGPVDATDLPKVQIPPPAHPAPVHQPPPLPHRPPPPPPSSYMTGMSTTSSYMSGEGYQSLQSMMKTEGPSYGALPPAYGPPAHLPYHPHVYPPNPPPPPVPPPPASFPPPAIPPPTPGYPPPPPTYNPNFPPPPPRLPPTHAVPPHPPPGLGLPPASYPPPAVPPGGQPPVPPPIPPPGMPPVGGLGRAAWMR

O=C(CSc1nc2ccccc2[nH]1)Nc1ccc(Cl)cn1 [IC021313.2]
physical engagement of CRL4B complex (competitive photoprobe pulldown, MS): physically engages with a CRL4B complex

Reference: patent US12410152B2, “Oxazole and thioazole-type cullin ring ubiquitin ligase compounds and uses thereof” (Proxygen GmbH, priority 2019, dated 2025)
